Where no end group is shown, it is not given here.
What was measured:
[1] = tested on: MRSA T144; experiment: microbe, parasite or virus in culture; assay type: cell-based, Staphylococcus aureus; conditions: T144
Experimental: (§1) S. aureus ATCC 29213, E. coli ATCC 25922, S. enteritidis ATCC 13076 and A. baumannii ATCC 19609 were obtained from the American Type Culture Collection (ATCC). The remaining strains used in the experiment were all preserved strains in our laboratory. All strains were cultured in nutrient broth overnight to the logarithmic phase at 37 °C prior to each experiment.
(§2) The MICs of all drugs were determined by micro-broth dilution method according to CLSI 2018 guidelines. Briefly, a single colony of the bacterial strain was transferred to 1 mL of Mueller Hilton broth (MHB) and overnight at 37 °C and then 10 μL were cultured in a new 1 mL medium for 4 to 6 h, and then the bacterial culture at the logarithmic phase was diluted to 1 × 10^6 CFUs/mL. The assay was performed by adding 100 μL of each peptide solution at various concentrations (0.25 to 128 μg/mL) and 100 μL of diluted bacterial culture to different wells of a 96-well microtiter plate (Corning, NY, USA). After incubation at 37 °C for 16 to 18 h and then read its MIC value. MIC value is defined as the lowest drug concentration without visible bacteria.

[2] = tested on: MRSA 1530; experiment: microbe, parasite or virus in culture; assay type: cell-based, Staphylococcus aureus; conditions: 1530
Experimental: as §1, §2

[3] = tested on: P. cibarius HNCF44W (blaNDM-1+ tet(X6)); experiment: organism not typed; assay type: cell-based
Experimental: as §1, §2

[4] = tested on: MRSA T144; assay type: cell-based, Staphylococcus aureus
Experimental: as §2
(§3) Then, the antibacterial activity of the peptides affected by different temperatures and pH were determined according to the determination steps of MICs test.
(§4) In MHB medium, Na^+, K^+, Mg^2+ and Ca^2+ with the final concentrations of 10 mM, fetal bovine serum, plasma or DMEM medium (Hyclone, Logan, UT, USA) with the final concentrations of 10% was added, and then MIC values were measured to evaluate the effects of different cations, serum and plasma on the antibacterial activity of peptides.
(§5) The peptide was incubated with protease (pepsin, trypsin and papain) (Solarbio, Beijing, China) with a final concentration of 1 mg/mL at 37 °C for 1 h, then the mixture of peptide and protease was heated at 100 °C for 30 min, then centrifuged at 13,000× g for 30 min, and the supernatant was taken for MIC determination.

[5] = tested on: E. coli G6 (blaNDM-5); experiment: microbe, parasite or virus in culture; assay type: cell-based; conditions: G6 (blaNDM-5)
Experimental: as §1, §2

[6] = tested on: P. aeruginosa (VIM + tmexCD1-torJ1); experiment: microbe, parasite or virus in culture; assay type: cell-based; conditions: VIM + tmexCD1-torJ1
Experimental: as §1, §2

[7] = tested on: S. aureus G16 (RIF^R); experiment: microbe, parasite or virus in culture; assay type: cell-based; conditions: S. aureus G16 (RIF^R); micro-broth dilution CLSI 2018, MHB, 37 °C, 16 to 18 h
Experimental: as §1, §2

[8] = tested on: E. coli CP131 (mcr-3); experiment: microbe, parasite or virus in culture; assay type: cell-based; conditions: CP131 (mcr-3)
Experimental: as §1, §2

[9] = tested on: E. coli C3 (blaNDM-1); experiment: microbe, parasite or virus in culture; assay type: cell-based; conditions: C3 (blaNDM-1)
Experimental: as §1, §2

[10] = tested on: E. coli B3-1 (tet(X4)); experiment: microbe, parasite or virus in culture; assay type: cell-based; conditions: B3-1 (tet(X4))
Experimental: as §1, §2

[11] = tested on: A. baumannii ATCC 19609; experiment: microbe, parasite or virus in culture; assay type: cell-based; conditions: ATCC 19609
Experimental: as §1, §2

[12] = tested on: E. faecalis A4 (VRE, VanA); experiment: microbe, parasite or virus in culture; assay type: cell-based; conditions: A4 (VRE, VanA)
Experimental: as §1, §2

[13] = tested on: S. enteritidis ATCC 13076; experiment: microbe, parasite or virus in culture; assay type: cell-based; conditions: ATCC 13076
Experimental: as §1, §2

[14] = tested on: P. aeruginosa PA14; experiment: microbe, parasite or virus in culture; assay type: cell-based; conditions: PA14
Experimental: as §1, §2

[15] = tested on: E. coli B2 (blaNDM-5 + mcr-1); experiment: microbe, parasite or virus in culture; assay type: cell-based; conditions: B2 (blaNDM-5 + mcr-1)
Experimental: as §1, §2

[16] = tested on: S. aureus ATCC 29213; experiment: microbe, parasite or virus in culture; assay type: cell-based; conditions: ATCC 29213
Experimental: as §1, §2

[17] = tested on: E. coli ATCC 25922; experiment: microbe, parasite or virus in culture; assay type: cell-based; conditions: ATCC 25922
Experimental: as §1, §2

[18] = tested on: E. coli 1F28 (tet(X4)); experiment: microbe, parasite or virus in culture; assay type: cell-based; conditions: 1F28 (tet(X4))
Experimental: as §1, §2

[19] = tested on: S. aureus 215 (cfr + LZD^R); experiment: microbe, parasite or virus in culture; assay type: cell-based; conditions: S. aureus 215 (cfr + LZD^R); micro-broth dilution CLSI 2018, MHB, 37 °C, 16 to 18 h
Experimental: as §1, §2

[20] = tested on: E. coli G92 (mcr-1); experiment: microbe, parasite or virus in culture; assay type: cell-based; conditions: G92 (mcr-1)
Experimental: as §1, §2

[21] = tested on: E. coli B2; assay type: cell-based
Experimental: as §2, §3, §4, §5

Sequence: GWGSFFKKAAHVGKHVGKAALTHYL [Pleu, Pleurocidin]
- MIC [1]: 2 µg/mL
- MIC [2]: 8 µg/mL
- MIC [3]: 2 µg/mL
- MIC after treatment at 121 °C ([4]; T144): 8 µg/mL
- MIC in DMEM (10%) ([4]; T144): 2 µg/mL
- MIC in Plasma (10%) ([4]; T144): 2 µg/mL
- MIC in Serum (10%) ([4]; T144): 4 µg/mL
- MIC in presence of Ca^2+ ([4]; T144): >128 µg/mL
- MIC in presence of K^+ ([4]; T144): 2 µg/mL
- MIC in presence of Mg^2+ ([4]; T144): 8 µg/mL
- MIC in presence of Na^+ ([4]; T144): 2 µg/mL
- MIC, Control ([4]; T144): 2 µg/mL
- MIC after Papain treatment ([4]; T144, 1 h): >128 µg/mL
- MIC after Pepsin treatment ([4]; T144, 1 h): 64 µg/mL
- MIC after Trypsin treatment ([4]; T144, 1 h): >128 µg/mL
- MIC after treatment at 40 °C ([4]; T144, 1 h): 2 µg/mL
- MIC after treatment at 60 °C ([4]; T144, 1 h): 1 µg/mL
- MIC after treatment at 80 °C ([4]; T144, 1 h): 2 µg/mL
- MIC after treatment at 100 °C ([4]; T144, 1 h): 4 µg/mL
- MIC after treatment at pH 2 ([4]; T144, 1 h, pH 2): 4 µg/mL
- MIC after treatment at pH 4 ([4]; T144, 1 h, pH 4): 4 µg/mL
- MIC after treatment at pH 6 ([4]; T144, 1 h, pH 6): 2 µg/mL
- MIC after treatment at pH 8 ([4]; T144, 1 h, pH 8): 4 µg/mL
- MIC after treatment at pH 10 ([4]; T144, 1 h, pH 10): 4 µg/mL
- MIC after treatment at pH 12 ([4]; T144, 1 h, pH 12): 4 µg/mL
- MIC [5]: 1 µg/mL
- MIC [6]: 4 µg/mL
- MIC [7]: 2 µg/mL
- MIC [8]: 1 µg/mL
- MIC [9]: 1 µg/mL
- MIC [10]: 1 µg/mL
- MIC [11]: 2 µg/mL
- MIC [12]: 8 µg/mL
- MIC [13]: 1 µg/mL
- MIC [14]: 1 µg/mL
- MIC [15]: 2 µg/mL
- MIC [16]: 4 µg/mL
- MIC [17]: 1 µg/mL
- MIC [18]: 4 µg/mL
- MIC [19]: 2 µg/mL
- MIC [20]: 1 µg/mL
- MIC after treatment at 121 °C ([21]; B2): 2 µg/mL
- MIC in DMEM (10%) ([21]; B2): 4 µg/mL
- MIC in Plasma (10%) ([21]; B2): <0.25 µg/mL
- MIC in Serum (10%) ([21]; B2): 1 µg/mL
- MIC in presence of Ca^2+ ([21]; B2): >128 µg/mL
- MIC in presence of K^+ ([21]; B2): 1 µg/mL
- MIC in presence of Mg^2+ ([21]; B2): 128 µg/mL
- MIC in presence of Na^+ ([21]; B2): 1 µg/mL
- MIC, Control ([21]; B2): 2 µg/mL
- MIC after Papain treatment ([21]; B2, 1 h): >128 µg/mL
- MIC after Pepsin treatment ([21]; B2, 1 h): 128 µg/mL
- MIC after Trypsin treatment ([21]; B2, 1 h): >128 µg/mL
- MIC after treatment at 40 °C ([21]; B2, 1 h): 1 µg/mL
- MIC after treatment at 60 °C ([21]; B2, 1 h): 1 µg/mL
- MIC after treatment at 80 °C ([21]; B2, 1 h): 1 µg/mL
- MIC after treatment at 100 °C ([21]; B2, 1 h): 2 µg/mL
- MIC after treatment at pH 2 ([21]; B2, 1 h, pH 2): 1 µg/mL
- MIC after treatment at pH 4 ([21]; B2, 1 h, pH 4): 1 µg/mL
- MIC after treatment at pH 6 ([21]; B2, 1 h, pH 6): 1 µg/mL
- MIC after treatment at pH 8 ([21]; B2, 1 h, pH 8): 1 µg/mL
- MIC after treatment at pH 10 ([21]; B2, 1 h, pH 10): 1 µg/mL
- MIC after treatment at pH 12 ([21]; B2, 1 h, pH 12): 1 µg/mL
